In US9782424B2, “Synergistic combination comprising avermectins and a NSAID for tumor inhibition” (Ectin Research AB, priority 2011, dated 2017):

Assays:
Format in all cases: cell-based, human
[1] = system: colorectal cell line (Colo205); assay: XTT-assay proliferation rate, colorectal cell line Colo205; details: for Proliferation rate compared to medium control: Colo205 (Table 4); for Proliferation rate in per cent compared to untreated medium control: Colo205
Excerpt: Commercially available human tumor cell lines were purchased from […], Borás, Sweden). Cell lines from urinary bladder (UM-UC-3, #CRL-1749), colorectal carcinoma (Colo205, #CCL-222 and HT29, #HTB-38), prostate carcinoma (LNCaP, #CRL-1740) and breast carcinoma (ZR-75-1, #CRL-1500) were purchased and stored in liquid nitrogen. […] Tumor cell lines were handled aseptically using a laminar airflow (LAF) bench (Holten 2448, Ninolab, Sweden) and stored in a liquid nitrogen tank and were initiated in culture as previously described (Falk P. Experimental models of the peritoneal environment: Effects of TGF-beta and Hyaluronan. Göteborg: University of Gothenburg; 2008). Briefly, ampoules of frozen cells were thawed by submerging into a 37° C. water bath for 45 s. […] Culture media was changed two-three times a week. Culture flasks (Cell+, Sarstedt, Nümbrecht, Germany) and culture plates (Falcon/BD, Franklin Lakes, N.J., USA) were used for experimental set-ups. […] Described culture techniques and equipment have been used extensively in the laboratory The proliferation rates of the different human tumor cell lines were studied using a method based on the conversion of a sodium salt (XTT-assay, Sigma) into a stable orange color that could be analyzed in a spectrophotometer. The color change is proportional to the mitochondrial dehydrogenase activity resulting in an effective technique for measuring cell toxicity (Roehm N W, Rodgers […], Glasebrook A L. An improved colorimetric assay for cell proliferation and viability utilizing the tetrazolium salt XTT. […] The color change was measured using a 96-well plate reader with software to calculate the absorbance at 450 nm (V-max/Softmax Pro, Molecular Devices, USA). […] RPMI 1640 and EMEM without phenol red was used during the experiments to reduce the red color background signal in the XTT-assay. […] Untreated wells including culture medium only served as untreated controls. The XTT-assay substrate was added and after gentle agitation using a micro plate shaker, absorbencies at 450 and 650 nm were measured. Levels from medium were subtracted and compared with control wells, using culture medium only.

[2] = system: prostatic cell line (LNCaP); assay: XTT-assay proliferation rate, prostatic cell line; details: for Proliferation rate compared to untreated control: LNCaP (Table 5)
Protocol: (§1) Commercially available human tumor cell lines were purchased from ATCC (ATCC/LGC-standards, Borás, Sweden). […] Briefly, ampoules of frozen cells were thawed by submerging into a 37° C. water bath for 45 s. […] With supernatant discarded, cell pellets were further resuspended with 5 ml complete medium into 25 cm^2 cell culture flasks (Cell+, Sarstedt, Nümbrecht, Germany). Tumor cells were cultured until sub-confluence and further sub-cultured with Trypsin (0.5%), EDTA (0.2%) solution (T4174, TE-10x, Sigma) in sterile sodium chloride. Culture media was changed two-three times a week. Culture flasks (Cell+, Sarstedt, Nümbrecht, Germany) and culture plates (Falcon/BD, Franklin Lakes, N.J., USA) were used for experimental set-ups. Cells were regularly monitored using an inverted microscope connected to a digital photo equipment (Axiovert 25 and Axiovision, Zeiss, Carl Zeiss AG, Germany) (FIG. 1). Described culture techniques and equipment have been used extensively in the laboratory
The proliferation rates of the different human tumor cell lines were studied using a method based on the conversion of a sodium salt (XTT-assay, Sigma) into a stable orange color that could be analyzed in a spectrophotometer. […] The color change was measured using a 96-well plate reader with software to calculate the absorbance at 450 nm (V-max/Softmax Pro, Molecular Devices, USA).
Increasing concentrations of substance ivermectin was added with an 8-channel pipette (Titertek, Kem-En-Tec, Taastrup, Denmark) together with sterile pipette tips (Molecular Bioproducts, San Diego, Calif., USA). Cell cultures including active substances were incubated for 24 hours (and 96 hours). Untreated wells including culture medium only served as untreated controls. The XTT-assay substrate was added and after gentle agitation using a micro plate shaker, absorbencies at 450 and 650 nm were measured. Levels from medium were subtracted and compared with control wells, using culture medium only.

[3] = system: colorectal cell line HT29; assay: Morphology of cultured tumor cells, HT29
Protocol: as §1
The effect of Ivermectin, selamectin, abamectin alone, or in combination with ketoconazole, albendazole, ibuprofen, diclofenac and celecoxib on the morphology of cultured human tumor cells was studied. The effect of ivermectin in the presence of increasing concentration of ivermectin was also investigated. […]

Substance: 22,23-dihydroavermectin B1a+22,23-dihydroavermectin B1b [ivermectin]
- Proliferation rate compared to medium control ([1]; IVM 1 μmol/L alone): 101.3 ± 4.9%
- Proliferation rate compared to medium control ([1]; IVM 10 μmol/L alone): 97.7 ± 8.5%
- Proliferation rate compared to medium control ([1]; IVM 100 μmol/L alone): 69.4 ± 11.5%
- Proliferation rate in per cent compared to untreated medium control ([1]; ivermectin 10e-9 mol/L): 97 ± 14%
- Proliferation rate in per cent compared to untreated medium control ([1]; ivermectin 10e-8 mol/L): 104 ± 8%
- Proliferation rate in per cent compared to untreated medium control ([1]; ivermectin 10e-7 mol/L): 69±9%
- Proliferation rate in per cent compared to untreated medium control ([1]; ivermectin 10e-6 mol/L): 42±12%
- Proliferation rate in per cent compared to untreated medium control ([1]; ivermectin 10e-5 mol/L): 6±1%
- Proliferation rate in per cent compared to untreated medium control ([1]; ivermectin 10e-4 mol/L): 4±1%
- Proliferation rate compared to untreated control ([2]; IVM 1 μmol/L alone): 95.4 ± 0.6%
- Proliferation rate compared to untreated control ([2]; IVM 10 μmol/L alone): 106.4±2.2%
- Proliferation rate compared to untreated control ([2]; IVM 10 μmol/L alone, listed as IVM): 106.4 ± 2.2%
- Proliferation rate compared to untreated control ([2]; IVM 100 μmol/L alone): 45.7 ± 2.2%
- Proliferation rate in per cent compared to untreated medium control ([2]; LNCaP, ivermectin 10e-9 mol/L): 91 ± 4%
- Proliferation rate in per cent compared to untreated medium control ([2]; LNCaP, ivermectin 10e-8 mol/L): 93 ± 5%
- Proliferation rate in per cent compared to untreated medium control ([2]; LNCaP, ivermectin 10e-7 mol/L): 94 ± 5%
- Proliferation rate in per cent compared to untreated medium control ([2]; LNCaP, ivermectin 10e-6 mol/L): 99 ± 4%
- Effect on proliferation rate compared to untreated control ([2]; LNCaP, ivermectin 100 μM alone or in combination): reduced the proliferation rate
- Proliferation rate in per cent compared to untreated medium control ([2]; LNCaP, ivermectin 10e-4 mol/L): 8±1%
- Effect on morphology ([3]; ivermectin 100 μM): affected
- Morphological effects over the concentration series ([3]; ivermectin 10e-4 to 10e-10 mol/L (FIG. 2)): not morphologically affected even at the highest concentration
